“Also recorded” adds a separate entry of the source.
What was measured:
[1] = target: T1, wild-type HDM2-p53 interaction (Homo sapiens, UniProt Q00987); assay: In vitro pull-down (co-immunoprecipitation, Western blot), wild-type HDM2; format: biochemical; settings: 10 μM
T1 construct: made in house; host or cells: cell-free in vitro transcription-translation (IVT)
Experimental: (§1) Protein G beads were incubated with anti-HA (1 μg per 10 μL beads) for 1 hour in PEST-3% BSA and subsequently washed twice in PBST-0.1% BSA. IVT-expressed protein was incubated with the beads on a rotator for 30 mins. […] IVT-containing secondary protein was added to the mixture and incubation allowed for 1 hour. Beads were finally washed thrice in PBST-0.1% BSA and thrice with PBS, and bound proteins eluted by resuspension in 20 μL SDS-PAGE loading buffer and incubation at 95° C. for 5 minutes. Where required, blank IVT extract (no template DNA added) was used as control. The eluates were subjected to electrophoresis, transferred to nitrocellulose membranes and probed for p53 with horseradish peroxidise conjugated DO1 antibody (Santa Cruz) or for HDM2 with anti-HA antibody followed by rabbit anti-mouse (Dakocytomation).
(§2) Protein G beads (Invitrogen) were incubated with anti-HA (1 μg per 10 μL beads) for 1 hour in PBST-3% BSA and subsequently washed twice in PBST-0.1% BSA. IVT expressed wild-type or mutant HDM2 was incubated with the beads on a rotator for 30 mins. […] IVT-expressed p53 was added to the mixture and incubation allowed for 1 hour. Beads were finally washed thrice in PBST-0.1% BSA and thrice with PBS, and bound proteins eluted by resuspension in 20 μL SDS-PAGE loading buffer and incubation at 95° C. for 5 minutes. […]

[2] = target: T2, HDM2 Q24R-p53 interaction (Homo sapiens, UniProt Q00987, Q24R); assay: In vitro pull-down (co-immunoprecipitation, Western blot), HDM2 Q24R; format: biochemical; settings: 10 μM
T2 construct: made in house; host or cells: cell-free in vitro transcription-translation (IVT)
Experimental: as §1, §2

[3] = target: T3, HDM2 M62A-p53 interaction (Homo sapiens, UniProt Q00987, M62A); assay: In vitro pull-down (co-immunoprecipitation, Western blot), HDM2 M62A; format: biochemical; settings: 10 μM
T3 construct: made in house; host or cells: cell-free in vitro transcription-translation (IVT)
Experimental: as §1, §2

[4] = target: T4, wild-type HDM2 (Homo sapiens, UniProt Q00987); assay: p53 reporter assay in p53/HDM2-null DKO cells, wild-type HDM2; format: cell-based; settings: 20 μM
T4 construct: expressed in transfected cells; host or cells: H1299 p53-/- cells (A5); mouse embryonic fibroblast p53/Mdm2 double-knockout (DKO) cells (A7)
Experimental: (§3) DKO (p53/HDM2 null) cells were maintained in Dulbecco's modified Eagle's medium (DMEM) with 10% foetal calf serum (FCS) and 1% penicillin/streptomycin. The cells were seeded at 1.0×10^5 cells/well in 6-well plates, 24 hours prior to transfection. […] In all cases, the total amount of plasmid DNA transfected per well was equilibrated by addition of the parental vector pcDNA3.1a(+).
(§4) DKO cells were harvested 24 hours after transfection and […] activities were assessed using the Dual-light System (Applied Biosystems) according to the manufacturer's protocol. The β-galactosidase activity was normalized with luciferase activity for each sample. To check for expression levels of relevant proteins via Western blot, 2.5 μg of the cell lysates were subjected to electrophoresis, transferred to nitrocellulose membranes and probed for p53 with horseradish peroxidise conjugated DO1 antibody, for HDM2 and actin with anti-HA antibody and AC15 antibody respectively followed by rabbit anti-mouse.
(§5) Mouse embryonic fibroblast p53/Mdm2 double-knockout (DKO) cells (a kind gift from Guillermina Lozano) and H1299 p53^−/− cells were maintained in Dulbecco's modified Eagle's medium (DMEM) with 10% (v/v) foetal calf serum (FCS) and 1% (v/v) penicillin/streptomycin. The cells were seeded at 1.0×10^5 cells/well in 6-well plates, 24 hours prior to transfection. […]

[5] = target: T5, HDM2 M62A (Homo sapiens, UniProt Q00987, M62A); assay: p53 reporter assay in p53/HDM2-null DKO cells, HDM2 M62A; format: cell-based; settings: 20 μM
T5 construct: expressed in transfected cells; host or cells: DKO mouse embryonic fibroblasts (A12); HCT116 p53+/+ (A28)
Experimental: as §3, §4, §5

[6] = target: purified HDM2 (amino acids 1-125) M62A (human) (UniProt Q00987); assay: competitive fluorescence anisotropy against FAM-12-1 peptide, apparent Kd
[7] = target: purified HDM2 (amino acids 1-125) P20L (human) (UniProt Q00987); assay: as above
[8] = target: purified HDM2 (amino acids 1-125) Q24R (human) (UniProt Q00987); assay: as above
[9] = target: purified HDM2 (amino acids 1-125), wild-type (human) (UniProt Q00987); assay: as above
Chain of purified HDM2 (amino acids 1-125), wild-type (human) (Q00987 1-125 limits assumed): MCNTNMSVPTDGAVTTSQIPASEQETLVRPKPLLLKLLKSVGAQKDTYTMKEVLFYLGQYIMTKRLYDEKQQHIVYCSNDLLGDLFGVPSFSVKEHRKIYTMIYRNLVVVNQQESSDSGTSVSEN

T2 sequence (Q00987 whole entry Q24R): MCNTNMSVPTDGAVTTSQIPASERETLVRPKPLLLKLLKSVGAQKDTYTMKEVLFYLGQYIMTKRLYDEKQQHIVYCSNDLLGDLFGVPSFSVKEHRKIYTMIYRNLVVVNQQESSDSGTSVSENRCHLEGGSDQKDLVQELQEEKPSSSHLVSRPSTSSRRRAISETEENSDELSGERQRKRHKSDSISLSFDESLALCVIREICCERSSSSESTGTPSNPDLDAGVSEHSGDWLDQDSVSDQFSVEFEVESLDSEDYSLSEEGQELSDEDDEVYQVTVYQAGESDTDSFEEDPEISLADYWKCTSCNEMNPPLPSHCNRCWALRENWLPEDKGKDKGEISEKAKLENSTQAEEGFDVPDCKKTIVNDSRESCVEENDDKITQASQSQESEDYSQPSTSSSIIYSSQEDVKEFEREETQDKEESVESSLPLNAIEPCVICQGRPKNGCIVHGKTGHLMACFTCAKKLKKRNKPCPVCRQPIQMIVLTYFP
T3 sequence (Q00987 whole entry M62A): as the sequence (Q00987 whole entry Q24R) above, with R24Q, M62A counted along it
Chain of purified HDM2 (amino acids 1-125) Q24R (human) (Q00987 1-125 Q24R limits assumed): as the sequence (Q00987 1-125 limits assumed) above, with Q24R counted along it
Chain of purified HDM2 (amino acids 1-125) P20L (human) (Q00987 1-125 P20L limits assumed): as the sequence (Q00987 1-125 limits assumed) above, with P20L counted along it
Chain of purified HDM2 (amino acids 1-125) M62A (human) (Q00987 1-125 M62A limits assumed): as the sequence (Q00987 1-125 limits assumed) above, with M62A counted along it
T1 sequence (Q00987 whole entry): as the sequence (Q00987 whole entry Q24R) above, with R24Q counted along it
T4 sequence (Q00987 whole entry): as the sequence (Q00987 whole entry Q24R) above, with R24Q counted along it
T5 sequence (Q00987 whole entry M62A): as the sequence (Q00987 whole entry Q24R) above, with R24Q, M62A counted along it

effect on p53 binding to immobilised HDM2 (Western blot) [1]	p53 activity restored, of that seen in absence of HDM2 co-transfection [4] [%]	p53 activity restored, of that seen in absence of HDM2 co-transfection [5] [%]	Kd [6] [nM]	Kd [7] [nM]	Kd [8] [nM]	Kd [9] [nM]	Molecule	effect on p53 binding to immobilised HDM2 (Western blot) [2]	effect on p53 binding to immobilised HDM2 (Western blot) [3]
showed inhibition of p53 binding	51	47	–	–	–	–	CC(=O)N[C@H](C(=O)N[C@@H](CO)C(=O)N[C@@H](Cc1ccccc1)C(=O)N[C@]1(C)CCCCCCC=CCCC[C@@](C)(C(N)=O)NC(=O)[C@H](CC(C)C)NC(=O)[C@H](CC(C)C)NC(=O)[C@H](C)NC(=O)[C@H](Cc2c[nH]c3cc(Cl)ccc23)NC(=O)[C@H](Cc2ccc(O)cc2)NC(=O)[C@H](CCC(=O)O)NC1=O)[C@@H](C)O [MO11]	showed inhibition of p53 binding; also recorded: abrogate the mutant HDM2-p53 interaction as efficiently as Nutlin inhibits the wildtype HDM2-p53 interaction	showed inhibition of p53 binding; also recorded: abrogate the mutant HDM2-p53 interaction as efficiently as Nutlin inhibits the wildtype HDM2-p53 interaction
–	–	–	29.6	17.2	10.4	13.9	p53 peptide	–	–
